Laboratory results reported in ChEMBL document CHEMBL4330083, “Synthesis and evaluation of isoprenylation-resveratrol dimer derivatives against Alzheimer's disease” (Eur J Med Chem, 2019).

Experiments:
[1] = in vitro; parameters: dose or concentration left out as unconfirmed; details: PAMPA
Description: Effective permeability of the compound at 100 mg/ml incubated for 16 hrs by PAMPA-BBB assay

[2] = Antioxidant activity assessed as ABTS radical cation scavenging activity by measuring trolox equivalents after 150 mins; format: functional
[3] = molecular target: T1, Amine oxidase [flavin-containing] B (Homo sapiens, UniProt P27338)
T1 sequence (P27338 whole entry): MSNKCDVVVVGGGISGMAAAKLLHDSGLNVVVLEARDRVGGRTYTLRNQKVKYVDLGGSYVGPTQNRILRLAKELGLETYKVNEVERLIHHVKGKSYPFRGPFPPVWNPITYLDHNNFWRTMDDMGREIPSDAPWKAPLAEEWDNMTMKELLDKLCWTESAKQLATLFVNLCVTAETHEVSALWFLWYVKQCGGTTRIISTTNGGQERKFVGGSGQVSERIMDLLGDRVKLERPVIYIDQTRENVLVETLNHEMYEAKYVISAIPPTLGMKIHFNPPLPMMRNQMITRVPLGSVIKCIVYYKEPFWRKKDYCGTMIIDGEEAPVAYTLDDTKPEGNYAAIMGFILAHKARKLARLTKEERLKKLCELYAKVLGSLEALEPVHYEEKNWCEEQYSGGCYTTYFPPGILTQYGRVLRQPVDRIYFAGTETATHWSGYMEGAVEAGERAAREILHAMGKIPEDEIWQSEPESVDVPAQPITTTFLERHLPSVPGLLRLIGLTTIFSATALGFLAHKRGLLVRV

[4] = species on record: Homo sapiens; assay: Selectivity ratio of IC50 for human MAO-A to IC50 for human MAO-B
[5] = Antioxidant activity assessed as inhibition of DPPH free radical after 30 mins by UV-Visible spectrophotometric analysis; format: functional
[6] = Antioxidant activity assessed as ferric ion reduction by measuring trolox equivalents after 3 to 5 mins by FRAP assay; format: functional
[7] = molecular target: T2, Amine oxidase [flavin-containing] A (Homo sapiens, UniProt P21397); assay: Inhibition of human MAO-A preincubated for 15 mins followed by p-tyramine substrate addition and measured after 20 mins by Amplex red reagent based fluorescence assay
T2 sequence (P21397 whole entry): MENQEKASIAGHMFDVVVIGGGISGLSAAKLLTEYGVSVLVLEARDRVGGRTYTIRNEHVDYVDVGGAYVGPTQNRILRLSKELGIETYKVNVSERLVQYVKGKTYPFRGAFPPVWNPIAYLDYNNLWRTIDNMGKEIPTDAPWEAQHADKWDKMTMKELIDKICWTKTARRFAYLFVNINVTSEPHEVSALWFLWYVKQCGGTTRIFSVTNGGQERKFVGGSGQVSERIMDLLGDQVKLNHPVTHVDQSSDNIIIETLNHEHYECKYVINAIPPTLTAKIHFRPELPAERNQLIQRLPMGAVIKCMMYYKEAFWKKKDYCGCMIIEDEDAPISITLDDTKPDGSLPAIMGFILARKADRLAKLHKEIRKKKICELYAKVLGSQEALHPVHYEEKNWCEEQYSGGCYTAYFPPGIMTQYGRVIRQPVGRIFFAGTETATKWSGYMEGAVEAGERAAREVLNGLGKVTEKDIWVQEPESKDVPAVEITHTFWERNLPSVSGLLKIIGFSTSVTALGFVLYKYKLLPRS

| Papp at 16 h [1] | IC50 [3] | Ratio IC50 [4] | IC50 [5] | IC50 [7] | Structure (SMILES) | Activity [2] | Activity [6] |
| --- | --- | --- | --- | --- | --- | --- | --- |
| 13.3 ×10⁻⁶ cm/s | – | – | – | – | C[C@]12CC[C@@H]3c4ccc(O)cc4CC[C@H]3[C@@H]1CC[C@@H]2O [ESTRADIOL] | – | – |
| – | 3.62 µM | 3.1 | 73.3 µM | 11.3 µM | CC(C)=CCc1c(O)cc(/C=C/c2ccc(O)cc2)cc1O [ARACHIDIN-2] | 1.23 equiv | 1.03 equiv |
| – | 1.9 µM | 5.58 | 185 µM | 10.6 µM | CO[C@@H](c1ccc(O)cc1)[C@H](Oc1ccc(/C=C/c2cc(O)c3c(c2)OC(C)(C)CC3)cc1)c1cc(O)c(CC=C(C)C)c(O)c1 | 0.29 equiv | 1.04 equiv |
| – | 2.39 µM | 3.74 | 76.8 µM | 8.93 µM | Oc1ccc([C@H]2Oc3ccc(/C=C/c4cc(O)cc(O)c4)cc3[C@@H]2c2cc(O)cc(O)c2)cc1 | – | – |
| – | – | – | 49.8 µM | – | Cc1c(C)c2c(c(C)c1O)CCC(C)(C(=O)O)O2 (stereo not given) [TROLOX] | 1 equiv | 1 equiv |
| – | 9.23 µM | 2.05 | 150 µM | 18.9 µM | CC(C)=CCc1c(O)cc([C@@H](Oc2ccc(/C=C/c3cc(O)c4c(c3)OC(C)(C)CC4)cc2)[C@@H](C)c2ccc(O)cc2)cc1O | 0.89 equiv | 1.26 equiv |

| Structure (SMILES) | Papp at 16 h [1] | IC50 [3] | Ratio IC50 [4] | IC50 [5] | IC50 [7] | Activity [2] | Activity [6] |
| --- | --- | --- | --- | --- | --- | --- | --- |
| Oc1ccc(/C=C/c2cc(O)cc(O)c2)cc1 [RESVERATROL] | – | 5.01 µM | – | 79.9 µM | – | 1.07 equiv | 0.98 equiv |
